Measured values taken from ChEMBL document CHEMBL1201862, “PubChem BioAssay data set” (2004).
Several values for one entry are separate records, joined by “and”; a condition that tells them apart may be missing. Equal values may be shown once.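 Results reflect a 48-hour exposure of cells in 96-well plates to compound at five concentrations. Here, GI50 denotes the concentration required for 50% inhibition of growth.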 Activity calls are given as the source filed them. No stated cut-off is given here; in the data, active = GI50 up to about 1.1 µM and inactive = higher.

Experiments:
Experiment in all cases: inhibition of tumour cell growth, NCI panel, 48 h
OVCAR-4 = tested on: OVCAR-4
ACHN = tested on: ACHN
NCI/ADR-RES = tested on: NCI/ADR-RES
SK-OV-3 = tested on: SK-OV-3
SK-MEL-2 = tested on: SK-MEL-2
HCT-15 = tested on: HCT-15
T47D = tested on: T47D
SNB-19 = tested on: SNB-19
HCT-116 = tested on: HCT-116
NCI-H23 = tested on: NCI-H23
LOX IMVI = tested on: LOX IMVI
UACC-257 = tested on: UACC-257
SR = tested on: SR
OVCAR-8 = tested on: OVCAR-8
HCC 2998 = tested on: HCC 2998
MDA-MB-435 = tested on: MDA-MB-435
RPMI-8226 = tested on: RPMI-8226
CAKI-1 = tested on: CAKI-1
SN12C = tested on: SN12C
NCI-H522 = tested on: NCI-H522

Structure (SMILES)	GI50 (OVCAR-4)	GI50 (ACHN)	GI50 (NCI/ADR-RES)	GI50 (SK-OV-3)	GI50 (SK-MEL-2)	GI50 (HCT-15)	GI50 (T47D)	GI50 (SNB-19)	GI50 (HCT-116)	GI50 (NCI-H23)	GI50 (LOX IMVI)	GI50 (UACC-257)	GI50 (SR)	GI50 (OVCAR-8)	GI50 (HCC 2998)	GI50 (MDA-MB-435)	GI50 (RPMI-8226)	GI50 (CAKI-1)	GI50 (SN12C)	GI50 (NCI-H522)
Cn1c(-c2cccc([N+](=O)[O-])c2)[n+](C)c2ccccc21	> 100 µM (inactive)	41.6 µM (inactive)	> 100 µM (inactive)	> 100 µM (inactive)	> 100 µM (inactive)	> 100 µM	> 100 µM (inactive)	> 100 µM (inactive)	> 100 µM (inactive)	25.7 µM (inactive)	> 100 µM (inactive)	> 100 µM (inactive)	> 100 µM (inactive)	49 µM (inactive)	> 100 µM (inactive)	> 100 µM (inactive)	> 100 µM (inactive)	> 100 µM (inactive)	–	–
CCOC(=O)C(NC(=O)NCc1ccc(F)cc1)C(F)(F)F (centres undefined)	–	> 100 µM (inactive)	> 100 µM (inactive)	> 100 µM (inactive)	> 100 µM (inactive)	> 100 µM	> 100 µM (inactive)	> 100 µM (inactive)	> 100 µM (inactive)	> 100 µM (inactive)	> 100 µM (inactive)	> 100 µM (inactive)	> 100 µM (inactive)	> 100 µM (inactive)	> 100 µM (inactive)	> 100 µM (inactive)	> 100 µM (inactive)	–	> 100 µM (inactive)	–
O/N=C1/CCCCCC1NO (centres undefined)	> 100 µM (inactive)	> 100 µM (inactive)	> 100 µM (inactive)	> 100 µM (inactive)	> 100 µM (inactive)	> 100 µM	> 100 µM (inactive)	> 100 µM (inactive)	> 100 µM (inactive)	> 100 µM (inactive)	> 100 µM (inactive)	> 100 µM (inactive)	> 10 µM (inactive)	> 100 µM (inactive)	> 100 µM (inactive)	> 100 µM (inactive)	> 100 µM (inactive)	> 100 µM (inactive)	> 100 µM (inactive)	–
COc1ccc(-n2c(C)nc3ccc(NC4OCC(O)C(O)C4O)cc3c2=O)cc1 (centres undefined)	> 100 µM (inactive)	61.4 µM (inactive) and 36.6 µM (inactive)	53.7 µM (inactive) and 83.6 µM (inactive)	–	> 100 µM (inactive)	26.6 µM and 31.6 µM	> 100 µM (inactive)	> 100 µM (inactive)	18.6 µM (inactive) and 19.4 µM (inactive)	56.6 µM (inactive) and 38.3 µM (inactive)	18.8 µM (inactive) and 22.5 µM (inactive)	> 100 µM (inactive)	31.1 µM (inactive) and 26.1 µM (inactive)	23.3 µM (inactive) and 28.6 µM (inactive)	> 100 µM (inactive)	> 100 µM (inactive) and 82.8 µM (inactive)	26.5 µM (inactive) and 20 µM (inactive)	–	38.1 µM (inactive) and 27.2 µM (inactive)	24.6 µM (inactive) and 22.3 µM (inactive)
O=C1c2ccccc2C(=O)N1CC1(C(=O)O)NCCS1(=O)=O (centres undefined)	> 100 µM (inactive)	> 100 µM (inactive)	> 100 µM (inactive)	> 100 µM (inactive)	> 100 µM (inactive)	> 100 µM	> 100 µM (inactive)	> 100 µM (inactive)	> 100 µM (inactive)	> 100 µM (inactive)	> 100 µM (inactive)	> 100 µM (inactive)	> 100 µM (inactive)	> 100 µM (inactive)	–	> 100 µM (inactive)	> 100 µM (inactive)	> 100 µM (inactive)	> 100 µM (inactive)	> 100 µM (inactive)
C/C(CC/C(C)=N/O)=N\O	> 100 µM (inactive)	> 100 µM (inactive)	> 100 µM (inactive)	> 100 µM (inactive)	> 100 µM (inactive)	> 100 µM	> 100 µM (inactive)	> 100 µM (inactive)	> 100 µM (inactive)	> 100 µM (inactive)	> 100 µM (inactive)	> 100 µM (inactive)	–	> 100 µM (inactive)	> 100 µM (inactive)	> 100 µM (inactive)	> 100 µM (inactive)	> 100 µM (inactive)	> 100 µM (inactive)	> 100 µM (inactive)
COc1cc2c(cc1O)c(O)cc1c3cc(OC)c(OC)cc3c[n+](C)c21	> 80.5 µM (inactive)	56.6 µM (inactive)	> 85.9 µM (inactive)	> 100 µM (inactive)	> 100 µM (inactive)	> 100 µM	1.45 µM (inactive)	1.13 µM (inactive)	23.1 µM (inactive)	4.69 µM (inactive)	16.2 µM (inactive)	51.8 µM (inactive)	–	8.87 µM (inactive)	> 91 µM (inactive)	16.4 µM (inactive)	> 32.8 µM (inactive)	> 54 µM (inactive)	1.24 µM (inactive)	0.0225 µM (active)
